# According to patent US20220251105A1, “METHODS OF TREATING A MK2-MEDIATED DISORDER” (Celgene CAR LLC, priority 2019, published 2022):
# Where two headings read alike, the source gives them in different places.
# Key:
# [1] = Phase 1 first in human study, pharmacokinetics; assay type: in vivo
# healthy adult subjects = assay: Phase 1 first in human study, safety and tolerability; assay type: in vivo
# Method: The 2 sentinel subjects (chosen according to a randomization scheme) were dosed on Day 1. After at least 24 hours, the safety profile was acceptable to the Investigator (based on, at minimum, adverse events [AEs], concomitant medications and procedures, and any other important clinical observations), and the remainder of the cohort was dosed according to the randomization schedule.
# The same total daily dose was then administered for the remainder of the planned treatment schedule (Days 2 to 14, inclusive).
# Results. This study was a Phase 1, three-part study with a double-blind, placebo-controlled, single ascending dose (SAD) phase, a double-blind multiple ascending dose (MAD) phase, and an open-label cross-over food effect phase. The study enrolled a total of 97 healthy adult subjects.
# [2] = single oral dose pharmacokinetics in Sprague Dawley rats; assay type: in vivo; details: rat
# Method: (§1) In vitro and in vivo studies were conducted to characterize the absorption, PK, distribution, and metabolism of Compound 1. […] Additionally, plasma samples from single dose PK studies in mice and monkeys were evaluated for circulating metabolites.
# bone resorption activity = bone resorption activity in vitro; assay type: cell-based
# CYP3A4/5 = assay: in vitro assessment of CYP inhibition; assay type: in vitro ADME, human; details: in vitro assessments
# Method: as §1
# [3] = exposure in 91-day mouse toxicology study; details: for AUC: mouse, plasma
# [4] = single intravenous dose pharmacokinetics in cynomolgus monkeys; assay type: in vivo; details: cynomolgus monkey, plasma; for Vd: read-out: Vdss;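 as to AUCLST: AUC to the last measurable time point (AUClast)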
# Method: as §1
# [5] = system: Imiquimod ear swelling in BALB/c mice; assay: imiquimod-induced ear swelling model; assay type: in vivo, mouse
# [6] = toxicokinetics, 28-day monkey study; assay type: in vivo, cynomolgus monkey; details: cynomolgus monkey, plasma; for Cmax: po, monkey
# [7] = Sprague Dawley, plasma, female, single oral 30 mg/kg
# [8] = Sprague Dawley, plasma, male, single oral 30 mg/kg
# [9] = cynomolgus, monkey, female, single IV 5 mg/kg
# [10] = cynomolgus, monkey, male, single IV 5 mg/kg
smiles,measurement,setting,value
CCOCc1cnc(Cl)nc1Oc1ccc2c(ccc3sc4c(c32)NC[C@@H](C)NC4=O)n1 [Compound 1],dose proportionality of Cmax and AUC,"[1]; Day 14, multiple daily doses 10 mg to 150 mg",approximately dose-proportional manner
same,effect of food on PK,"[1]; current capsule formulation, fed vs fasted",limited effect
same,accumulation,[1]; daily dosing for 14 days,limited to no observed accumulation
same,AUC,"[1]; human, in vivo, oral, humans, 150 mg, read-out: observed AUCLST",1360 ng·h/mL
same,half-life at 14 days,"[1]; human, plasma, oral, Day 14, multiple daily doses 10 mg to 150 mg, read-out: t½, geometric mean",1.96 to 4.39 h
same,Tmax at 14 days,"[1]; human, plasma, oral, multiple daily doses, 10 mg to 150 mg",1 to 2.5 h
same,Tmax,"[1]; human, plasma, single oral dose, 3 mg to 400 mg, read-out: median Tmax",1 to 3 h
same,half-life,"[1]; human, plasma, single oral dose, 3 mg to 400 mg, read-out: terminal elimination half-life (t½), geometric mean",1.66 to 6.95 h
same,predicted human bioavailability,[1]; prediction before food effect part,25%
same,dose proportionality of Cmax and AUC,"[1]; single oral dose, 3 mg to 400 mg",approximately dose proportional manner
same,most common TEAEs suspected related (skin and subcutaneous tissue disorder),"healthy adult subjects; Part 1, 400-mg dose level, 2 TEAEs in 2 subjects","mild, transient, pruritic, erythematous rash without other organ involvement"
same,severe TEAEs or serious adverse events,"healthy adult subjects; Part 1, single doses 3 mg to 400 mg",no severe TEAEs or serious adverse events (SAEs)
same,TEAEs suspected to be related to Compound 1,"healthy adult subjects; Part 1, single doses 3 mg to 400 mg, of the 22 total TEAEs",5
same,"ALT elevations, other 2 subjects","healthy adult subjects; Part 2, 120 mg",less than 2 × above the upper limit of normal
same,peak ALT elevation,"healthy adult subjects; Part 2, 120 mg, one subject, Day 17",2.3 ×ULN
same,TEAEs suspected to be related to Compound 1,"healthy adult subjects; Part 2, 10 to 150 mg daily for 14 days, of the 42 total TEAEs",9
same,subjects with increase in serum transaminase levels (ALT) above ULN,"healthy adult subjects; Part 2, 120-mg dose cohort, of 6 subjects on active treatment",3
same,transaminase level changes,"healthy adult subjects; Part 2, 150-mg dose cohort, 14-day dosing period",no transaminase level changes were observed in any subject
same,tolerability,"healthy adult subjects; single dose up to 400 mg, 14 days up to 150 mg",well tolerated
same,AUC,[2]; [7],5940 ng·h/mL
same,AUC(0-inf),[2]; [7],6610 ng·h/mL
same,Cmax,[2]; [7],4960 ng/mL
same,Tmax,"[2]; Sprague Dawley, plasma, female, single oral 30 mg/kg, median, read-out: tmax",0.5 h
same,AUC,[2]; [8],1190 ng·h/mL
same,AUC(0-inf),[2]; [8],1290 ng·h/mL
same,Cmax,[2]; [8],1180 ng/mL
same,Tmax,"[2]; Sprague Dawley, plasma, male, single oral 30 mg/kg, median, read-out: tmax",0.25 h
same,Tmax,"[2]; both sexes, Sprague Dawley, plasma, 30 mg/kg, rats, oral dosing, read-out: time to maximum plasma concentration (tmax)",0.25 to 1 h
same,bioavailability,"[2]; both sexes, Sprague Dawley, plasma, po, rats, doses in the range 15 to 375 mg/kg",8 to 28%
same,F,"[2]; female, single oral 30 mg/kg",28%
same,F,"[2]; male, single oral 30 mg/kg",11%
same,bone resorption activity,bone resorption activity,reduce bone resorption activity in vitro
same,inhibition of intestinal CYP3A4/5,CYP3A4/5,potential for direct and time-dependent inhibition
same,margin of human 150 mg exposure below the mouse NOAEL,[3]; mouse NOAEL AUCLST vs human 150 mg AUCLST,21 fold
same,AUC,[3]; 100 mg/kg/day,28800 ng·h/mL
same,AUC,[3]; 750 mg/kg/day,144000 ng·h/mL
same,half-life,"[4]; both sexes, iv, 5 mg/kg, monkeys, read-out: terminal half-life",≤ 1 h
same,AUC,[4]; [9],2200 ng·h/mL
same,AUC(0-inf),[4]; [9],2210 ng·h/mL
same,clearance,[4]; [9],38.3 mL/min/kg
same,Vd,[4]; [9],1.93 L/kg
same,half-life,"[4]; cynomolgus, monkey, female, single IV 5 mg/kg, read-out: t1/2,z (converted)",0.98 h
same,AUC,[4]; [10],1920 ng·h/mL
same,AUC(0-inf),[4]; [10],1920 ng·h/mL
same,clearance,[4]; [10],43.5 mL/min/kg
same,Vd,[4]; [10],1.81 L/kg
same,half-life,"[4]; cynomolgus, monkey, male, single IV 5 mg/kg, read-out: t1/2,z (converted)",0.95 h
same,% Inhibition by ear thickness clinical score,"[5]; 3 mg/kg, from area under the ear thickness-time curve",57% by ear
same,Minimally Efficacious Dose,[5]; endpoint ear thickness,3 mg/kg
same,AUC(0-t),"[6]; oral, female monkeys, read-out: AUC0-24, steady state exposure at the NOAEL",~7840 ng·h/mL
same,Cmax,"[6]; Study Day 1, male, 375 mg/kg/day",1960 ng/mL
same,Cmax,"[6]; cynomolgus, Study Day 21, female, 375 mg/kg/day",810 ng/mL
same,Cmax,"[6]; cynomolgus, Study Day 21, male, 375 mg/kg/day",2340 ng/mL
same,Cmax,"[6]; female, 15 mg/kg/day, Study Day 1, female, 15 mg/kg/day (so in the source)",862 ng/mL
